Reference: US20230348362A1, “LIPID COMPOUNDS AND LIPID NANOPARTICLE COMPOSITIONS” (Suzhou Abogen Biosciences Co., Ltd., priority 2021, published 2023)

Assays:
Type in all cases: physicochemical
[1] = Lipid nanoparticle size and polydispersity by dynamic light scattering; details: LNP of lipid/DSPC/cholesterol/PEG-lipid 50:10:38.5:1.5 encapsulating hEPO mRNA
Outline: (§1)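 LNPs made from ionizable lipid/DSPC/cholesterol/PEG-lipid (50:10:38.5:1.5) and mRNA in citrate pH 4 by microfluidic mixing, lipid:mRNA about 10:1–30:1 w/w, then dialysed into DPBS and filtered. Size and PDI measured by DLS in backscatter mode; encapsulation efficiency measured by RiboGreen assay.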

[2] = Encapsulation efficiency of lipid nanoparticles, Quant-it Ribogreen RNA assay; details: LNP of lipid/DSPC/cholesterol/PEG-lipid 50:10:38.5:1.5 encapsulating hEPO mRNA
Outline: as §1

[3] = Apparent pKa of LNP formulations, TNS fluorescence assay; details: LNP cationic lipid/DSPC/cholesterol/DMG-PEG 50/10/38.5/1.5 mol %
Outline: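 LNPs (cationic lipid/DSPC/cholesterol/DMG-PEG 50/10/38.5/1.5 mol %) diluted to 0.1 mg/mL total lipid in citrate/phosphate/borate/NaCl buffers spanning pH 3–9 with TNS. Fluorescence (ex 325, em 435 nm) read at room temperature; pKa taken as the pH at half-maximal intensity from sigmoidal fit.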

| polydispersity [1] | size (nm) [1] [nm] | Encapsulation Efficiency [2] [%] | Apparent Pka [3] | SMILES |
| --- | --- | --- | --- | --- |
| 0.036 | 73.66 | 92.25 | 6.712 | CCCCCCCCC(CCCCCC)CNC(=O)CCCCCCN(CCO)CCN(CCCCC(COC(=O)CCCCCCC)COC(=O)CCCCCCC)C1CCCCC1 (stereo not shown) [Compound 231] |
| 0.044 | 79.95 | 91.7 | 6.509 | CCCCCCCCCCCC(=O)OCCCCCN(CCN(CCO)CCCCCOC(=O)CC(CCCCCCCC)CCCCCCCC)C1CCCCC1 [Compound 57] |
| 0.085 | 111.8 | 86.80 | 6.738 | CCCCCCCCCCCNC(=O)CCCCCN(CCN(CCO)CCCCC(COC(=O)CCCCCCC)COC(=O)CCCCCCC)C1CCC1 [Compound 188] |
| 0.033 | 67.78 | 90.80 | 6.542 | CCCCCCCCC(CCCCCC)CNC(=O)CCCCCCCN(CCO)CCN(CCCCC(COC(=O)CCCCCCC)COC(=O)CCCCCCC)C1CCCCCCC1 (stereo not shown) [Compound 215] |
| 0.045 | 62.35 | 92.4 | 6.686 | CCCCCCCCC(CCCCCCCC)COC(=O)CCCCCN(CCO)CCN(CCCCCC(=O)OCC(CCCCCCCC)CCCCCCCC)C1CCOCC1 [Compound 28] |
| 0.033 | 58.8 | 98.9 | 6.671 | CCCCCCCCC(CCCCCCCC)CNC(=O)CCCCCN(CCO)CCN(CCCCCC(=O)OCC(CCCCCCCC)CCCCCCCC)C1CCCCCC1 [Compound 17] |
| 0.07 | 66.41 | 89.6 | 6.346 | CCCCCCCCCCCOC(=O)CCCCCN(CCN(CCO)CCCCCCC(=O)OCC(CCCCCCCC)CCCCCCCC)C1CCCCC1 [Compound 43] |
| 0.037 | 71.53 | 87.2 | 6.988 | CCCCCCCCC(CCCCCCCC)COC(=O)CCCCCN(CCO)CCN(CCCCCC(=O)OCC(CCCCCCCC)CCCCCCCC)Cc1ccncc1 [Compound 37] |
| 0.109 | 82.66 | 90.40 | 6.707 | CCCCCCCCC(CCCCCC)COC(=O)CCCCCN(CCCCN(CCO)CCCCC(COC(=O)CCCCCCC)COC(=O)CCCCCCC)C1CCCCC1 (stereo not shown) [Compound 192] |
| 0.037 | 73.5 | 92.1 | 6.295 | CCCCCCCCCCCOC(=O)CCCCCN(CCN(CCO)CCCCCCCC(=O)OCC(CCCCCCCC)CCCCCCCC)C1CCCCC1 [Compound 48] |
| 0.139 | 72.88 | 91.69 | 7.617 | CCCCCCCCC(CCCCCCCC)CNC(=O)CCCCCN(CCCCN(CCO)CCCCC(COC(=O)CCCCCCC)COC(=O)CCCCCCC)C1CCC1 [Compound 186] |
| 0.13 | 78.4 | 88.81 | 6.699 | CCCCCCCCC(CCCCCC)COC(=O)CCCCCN(CCCCN(CCO)CCCCC(COC(=O)CCCCCCC)COC(=O)CCCCCCC)C1CC1 (stereo not shown) [Compound 190] |
| 0.064 | 61.84 | 92.43 | 6.368 | CCCCCCCCC(CCCCCC)COC(=O)CCCCCN(CC=C(C)C)CCN(CCO)CCCCC1COC(C(CCCCCC)CCCCCCCC)OC1 (stereo not shown) [Compound 151] |
| 0.077 | 70.01 | 93.23 | 6.583 | CCCCCCCCC(CCCCCCCC)CNC(=O)CCCCCN(CC=C(C)C)CCN(CCO)CCCCCC(=O)OCC(CCCCCCCC)CCCCCCCC [Compound 121] |
| 0.152 | 59.28 | 94.58 | 6.336 | CCCCCCCCC(CCCCCCCC)COC(=O)CCCCCN(CCO)CCN(CC=C(C)C)CCOCCC(=O)OCC(CCCCCCCC)CCCCCCCC [Compound 123] |
| 0.048 | 73.95 | 93.09 | 6.437 | CCCCCCCCC(CCCCCCCC)COC(=O)OCCCCCN(CCO)CCN(CCCCCNC(=O)CC(CCCCCC)CCCCCCCC)C1CCCCCC1 (stereo not shown) [Compound 153] |
| 0.121 | 55.62 | 93.22 | 6.411 | CCCCCCCCCCCOC(=O)CCCCCN(CCN(CCO)CCCCCC(=O)OCC(CCCCCCCC)CCCCCCCC)C1CCCCCC1 [Compound 107] |

| polydispersity [1] | size (nm) [1] [nm] | Encapsulation Efficiency [2] [%] | Apparent Pka [3] | SMILES |
| --- | --- | --- | --- | --- |
| 0.05 | 55.14 | 87.2 | 5.485 | CCCCCCCCC(CCCCCCCC)COC(=O)CCCCCN(CCO)CCN(CCCCCC(=O)OCC(CCCCCCCC)CCCCCCCC)C1CCCCC1C (stereo not shown) [Compound 34] |
| 0.062 | 58.17 | 89.5 | 6.685 | CCCCCCCCC(CCCCCCCC)CNC(=O)CCCCCN(CCO)CCN(CCCCCC(=O)NCC(CCCCCCCC)CCCCCCCC)C1CCCC1 [Compound 12] |
| 0.041 | 103.40 | 89.97 | 6.322 | CCCCCCCC(=O)OCC(COCCN(CCO)CCN(CCOCC(COC(=O)CCCCCCC)COC(=O)CCCCCCC)C1CCCCC1)COC(=O)CCCCCCC [Compound 179] |
| 0.090 | 72.08 | 87.54 | 6.02 | CCCCCCCC(=O)OCC(CCCCN(CCO)CCN(CCCCC(COC(=O)CCCCCCC)COC(=O)CCCCCCC)C1CCCCCCC1)COC(=O)CCCCCCC [Compound 161] |
| 0.031 | 77.78 | 92.47 | 6.567 | CCCCCCCCC(CCCCCC)CNC(=O)CCCCCCN(CCO)CCN(CCCCC(COC(=O)CCCCCCC)COC(=O)CCCCCCC)C1CCCCCC1 (stereo not shown) [Compound 232] |
| 0.115 | 64.49 | 87.92 | 6.042 | CCCCCCCCCCCC(=O)OCCCCCN(CCN(CCO)CCCCCOC(=O)CC(CCCCCCCC)CCCCCCCC)C1CC1 [Compound 91] |
| 0.039 | 59.89 | 91.7 | 6.761 | CCCCCCCCC(CCCCCCCC)CC(=O)NCCCCCN(CCO)CCN(CCCCCNC(=O)CC(CCCCCCCC)CCCCCCCC)C1CCC1 [Compound 60] |
| 0.09 | 74.62 | 96.0 | 6.269 | CCCCCCCCC(CCCCCCCC)COC(=O)CCCCCN1CCC(N(CCO)CCCCCC(=O)OCC(CCCCCCCC)CCCCCCCC)CC1 [Compound 170] |
| 0.034 | 68.28 | 92.0 | 6.21 | CCCCCCCCC(CCCCCCCC)CC(=O)OCCCCCN(CCO)CCN(CCCCCOC(=O)CC(CCCCCCCC)CCCCCCCC)C1CCC1 [Compound 62] |
| 0.082 | 77.17 | 90.14 | 6.407 | CCCCCCCCCOC(=O)CCCCCN(CCN(CCO)CCCCCC(=O)OCC(CCCCCCCC)CCCCCCCC)C1CCCCC1 [Compound 102] |
| 0.07 | 99.33 | 93.71 | 6.316 | CCCCCCCCCCCOC(=O)CCCCCN(CCN(CCO)CCCCC(COC(=O)CCCCCCC)COC(=O)CCCCCCC)C1CCCCC1 [Compound 221] |
| 0.13 | 63.47 | 97.57 | 7.024 | CCCCCCCCC(CCCCCCCC)COC(=O)CCCCCN(C)CCN(CCO)CCCCCC(=O)OCC(CCCCCCCC)CCCCCCCC [Compound 26] |
| 0.15 | 102.1 | 84.59 | 6.705 | CCCCCCCCC(CCCCCC)COC(=O)CCCCCN(CCCCN(CCO)CCCCC(COC(=O)CCCCCCC)COC(=O)CCCCCCC)C1CCCCCCC1 (stereo not shown) [Compound 194] |
| 0.097 | 59.91 | 91.88 | 6.117 | CCCCCCCCC(CCCCCCCC)COC(=O)CCCCCN(CCO)CCN(CCCCCCOC(=O)C(CCCCCCCC)CCCCCCCC)C1CCC1 [Compound 84] |
| 0.056 | 96.32 | 89.15 | 6.337 | CCCCCCCC(=O)OCC(COCCN(CCO)CCN(CCOCC(COC(=O)CCCCCCC)COC(=O)CCCCCCC)C1CCC1)COC(=O)CCCCCCC [Compound 178] |
| 0.101 | 56.95 | 87.11 | 6.061 | CCCCCCCCC(CCCCCC)COC(=O)CCCCCN(CCO)CCN(CCCCC(COC(=O)CCCCCCC)COC(=O)CCCCCCC)C1CC1 (stereo not shown) [Compound 154] |
| 0.043 | 75.42 | 94.33 | 6.546 | CCCCCCCCC(CCCCCCCC)COC(=O)CCOCCN(CC=C(C)C)CCN(CCO)CCOCCC(=O)OCC(CCCCCCCC)CCCCCCCC [Compound 120] |
